BindingDB's records for doi:10.1016/s0960-894x(00)00080-9 (Granada, 2000)
pIC50: −log10 of the molar value.

Target: Choline kinase (Saccharomyces cerevisiae) (UniProt P20485)
Experiment: Compound was tested […] for inhibition against purified choline kinase obtained from yeast

Sequence of Choline kinase (Saccharomyces cerevisiae) (P20485 whole entry, looked up): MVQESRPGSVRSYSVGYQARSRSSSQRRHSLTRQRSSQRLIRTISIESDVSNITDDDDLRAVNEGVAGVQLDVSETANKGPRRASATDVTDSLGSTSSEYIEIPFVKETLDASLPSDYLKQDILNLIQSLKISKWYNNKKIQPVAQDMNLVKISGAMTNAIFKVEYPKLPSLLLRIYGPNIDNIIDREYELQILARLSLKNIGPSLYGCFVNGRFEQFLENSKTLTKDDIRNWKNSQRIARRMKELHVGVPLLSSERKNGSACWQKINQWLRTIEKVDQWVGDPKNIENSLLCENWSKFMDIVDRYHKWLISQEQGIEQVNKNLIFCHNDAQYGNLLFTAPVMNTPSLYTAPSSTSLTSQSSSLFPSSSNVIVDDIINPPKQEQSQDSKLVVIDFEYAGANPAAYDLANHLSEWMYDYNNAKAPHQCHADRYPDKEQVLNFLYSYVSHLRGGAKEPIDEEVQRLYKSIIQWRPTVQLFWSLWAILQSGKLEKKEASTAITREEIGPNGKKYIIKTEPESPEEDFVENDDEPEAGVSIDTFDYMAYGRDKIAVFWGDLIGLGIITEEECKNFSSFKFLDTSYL

Row | SMILES | pIC50
1 | OCc1cc[n+](Cc2ccc(CCc3ccc(C[n+]4ccc(CO)cc4)cc3)cc2)cc1 [1-{4-[4-(4-hydroxymethyl-1-pyridiniumylmethyl)phenethyl]benzyl}-4-pyridiniumylmethanol dibromide] | 4.00
2 | c1cc(Cn2ccc(=[N+]3CCCCCC3)cc2)ccc1CCc1ccc(Cn2ccc(=[N+]3CCCCCC3)cc2)cc1 [1,2-di{4-[4-(1-azepanyl)-1-pyridiniumylmethyl]phenyl}ethane dibromide] | 4.82
3 | C=CC[N+](CC=C)=c1ccn(Cc2ccc(CCc3ccc(Cn4ccc(=[N+](CC=C)CC=C)cc4)cc3)cc2)cc1 [4N,4N-diallyl-1-{4-[4-(4-diallylamino-1-pyridiniumylmethyl)phenethyl]benzyl}-4-pyridiniumamine dibromide] | 4.77
4 | Cc1cc[n+](Cc2ccc(CCc3ccc(C[n+]4ccc(C)cc4)cc3)cc2)cc1 [1,2-di[4-(4-methyl-1-pyridiniumylmethyl)phenyl]ethane dibromide] | 4.00
5 | C[N+](C)=c1ccn(Cc2ccc(CCc3ccc(Cn4ccc(=[N+](C)C)cc4)cc3)cc2)cc1 [4N,4N-dimethyl-1-{4-[4-(4-dimethylamino-1-pyridiniumylmethyl)phenethyl]benzyl}-4-pyridiniumamine dibromide] | 4.77
6 | N#Cc1cc[n+](Cc2ccc(CCc3ccc(C[n+]4ccc(C#N)cc4)cc3)cc2)cc1 [1-{4-[4-(4-cyano-1-pyridiniumylmethyl)phenethyl]benzyl}-4-pyridiniumcarbonitrile dibromide] | < 3.00

Continued by rising pIC50, values first:

Row | pIC50 | SMILES
7 | 3.86 | O=C(O)c1cc[n+](Cc2ccc(CCc3ccc(C[n+]4ccc(C(=O)O)cc4)cc3)cc2)cc1 [1-{4-[4-(4-carboxy-1-pyridiniumylmethyl)phenethyl]benzyl}-4-pyridiniumcarboxylic acid dibromide]
8 | 4.64 | N=c1ccn(Cc2ccc(CCc3ccc(Cn4ccc(=N)cc4)cc3)cc2)cc1 [1-{4-[4-(4-amino-1-pyridiniumylmethyl)phenethyl]benzyl}-4-pyridiniumamine dibromide]
9 | 4.70 | c1cc(Cn2ccc(=[N+]3CCCC3)cc2)ccc1CCc1ccc(Cn2ccc(=[N+]3CCCC3)cc2)cc1 [1,2-di[4-(4-tetrahydro-1H-1-pyrrolyl-1-pyridiniumylmethyl)phenyl]ethane dibromide]
10 | 5.02 | c1cc(Cn2ccc(=[N+]3CCCCC3)cc2)ccc1CCc1ccc(Cn2ccc(=[N+]3CCCCC3)cc2)cc1 [1,2-di[4-(4-hexahydro-1-pyridinyl-1-pyridiniumylmethyl)phenyl]ethane dibromide]
